The source of these data is article PMC9611449, “Hydroxy-3-Phenylcoumarins as Multitarget Compounds for Skin Aging Diseases: Synthesis, Molecular Docking and Tyrosinase, Elastase, Collagenase and Hyaluronidase Inhibition, and Sun Protection Factor” (Molecules, 2022).

In data set [1] the test system is Collagenase from Clostridium histolyticum. The data set is described as follows: Collagenase inhibition assay (FALGPA substrate). As to conditions: for Enzyme inhibition Collagenase: 100 μM; for IC50: mean ± SD of three independent experiments. Type of data set: biochemical. The protocol: Results from all the inhibition tests described below were reported as a percentage of the blank control. Since the compounds were dissolved in DMSO, in the assays carried out without compounds, DMSO was added to the reaction mixture as blank control. […] Data from activity experiments were recorded using an Ultrospec 2100 spectrophotometer (Biochrom Ltd., Cambridge, UK).
Collagenase from Clostridium histolyticum (1 U/mL) was prepared in 0.05 M Tricine buffer (pH 7.5), with 0.4 M NaCl and 0.01 M CaCl2, and incubated with different concentrations of test samples for 15 minutes. After adding the N-(3-[2-Furyl]-acryloyl)-Leu-Gly-Pro-Ala (FALGPA) substrate, prepared in the same buffer solution reaching a final concentration of 0.8 mM, the absorbance was registered at 340 nm. Epigallocatechin gallate was used as a positive control.

Data set [2] deals with mushroom tyrosinase. The arrangement: method as in doi:10.1039/C5RA14465E. As to conditions: data previously reported; cited from earlier work.
In data set [3] the test system is mushroom tyrosinase. The data set is described as follows: Tyrosinase inhibition assay (L-DOPA substrate). It counts as biochemical. The settings on record: for Enzyme inhibition Tyrosinase: 50 μM. The protocol: (§1) Since the compounds were dissolved in DMSO, in the assays carried out without compounds, DMSO was added to the reaction mixture as blank control. […] Data from activity experiments were recorded using an Ultrospec 2100 spectrophotometer (Biochrom Ltd., Cambridge, UK).
The inhibition of tyrosinase was monitored by using DOPA as substrate. The reaction solution contained phosphate buffer (25 mM, pH 6.8) and mushroom tyrosinase (100 U/mL), with or without test samples.

The subject of data set [4] is Human skin keratinocyte cell line (HaCaT). The data set is described as follows: HaCaT cell viability (MTT assay). Type of data set: cell-based. The settings on record: 10–200 μM, 24 h. The protocol: Human skin keratinocyte cell line (HaCaT; CLS–Cell Lines Service, Eppelheim, Germany) was cultured in Dulbecco’s Modified Eagle’s Medium (DMEM) with 10% fetal bovine serum (FBS; Gibco, NY, USA) and 1% penicillin/streptomycin at 37 °C in a humidified atmosphere with 5% CO2. Cell viability was determined by the MTT (3-(4,5-dimethylthiazol-2-yl)-2,5-diphenyltetrazolium bromide) colorimetric assay, as previously reported. Briefly, HaCaT cells were seeded in 96-well plates and incubated with compounds at different concentrations (0–200 µM). After 24 h, cells were labelled with MTT solution for 3 h at 37 °C. DMSO was added to the formed violet formazan precipitates and the absorbance of each well was measured at 560 nm.

Data set [5] has as its target porcine pancreatic elastase (Sus scrofa, UniProt P00772). As to the kind of experiment: Elastase inhibition assay (SANA substrate). It counts as biochemical. As to conditions: for inhibition at 50 µM: read-out: Enzyme inhibition Elastase; for IC50: mean ± SD of three independent experiments. The protocol: as §1
The inhibition of elastase was determined by measuring the production of p-nitroaniline during the reaction of the enzyme with the N-succ-(Ala)3-nitroanilide (SANA) substrate. The assay was carried out in Tris-HCl buffer (0.1 M, pH 8.0) containing porcine pancreatic elastase (3.3 µg/mL). The reaction mixture was incubated in the presence or in the absence of the test compounds for 20 minutes and, once the substrate (1.6 mM) was added, the enzyme activity was monitored at 410 nm.

In another data set the target is T1, hyaluronidase (Bos taurus, UniProt Q2YDK3).
T1 sequence (Q2YDK3 36-553): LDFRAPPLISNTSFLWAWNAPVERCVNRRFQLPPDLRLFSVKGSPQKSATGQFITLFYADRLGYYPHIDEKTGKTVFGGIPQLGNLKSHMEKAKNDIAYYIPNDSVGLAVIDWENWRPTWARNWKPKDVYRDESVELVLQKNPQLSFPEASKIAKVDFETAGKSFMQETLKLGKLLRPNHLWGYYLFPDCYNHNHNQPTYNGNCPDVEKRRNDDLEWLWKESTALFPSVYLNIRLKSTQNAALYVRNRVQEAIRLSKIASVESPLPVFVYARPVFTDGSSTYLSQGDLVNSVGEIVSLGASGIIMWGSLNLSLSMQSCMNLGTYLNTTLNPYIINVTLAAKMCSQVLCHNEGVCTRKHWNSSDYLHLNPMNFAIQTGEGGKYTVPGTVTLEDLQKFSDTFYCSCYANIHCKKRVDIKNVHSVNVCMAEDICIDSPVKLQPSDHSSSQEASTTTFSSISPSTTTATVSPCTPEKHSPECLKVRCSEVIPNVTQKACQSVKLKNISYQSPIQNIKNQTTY
As to the kind of experiment: Hyaluronidase inhibition assay. It counts as biochemical. The settings on record: ratio of IC50 values. On the procedure: as §1
Inhibition of hyaluronidase was determined following the method reported by Chompoo and co-authors. A 5 μL test sample was incubated with 100 μL of enzyme solution (1.5 U) containing 20 mM sodium phosphate buffer (pH 7.0) with 77 mM NaCl and bovine serum albumin (BSA) 0.01%. […] After 10 minutes at room temperature, the absorbance was monitored at 600 nm.

“Also recorded” adds a separate entry of the source. Read-outs that look alike come from different tables or passages of the source.

porcine pancreatic elastase, sequence (P00772 27-266): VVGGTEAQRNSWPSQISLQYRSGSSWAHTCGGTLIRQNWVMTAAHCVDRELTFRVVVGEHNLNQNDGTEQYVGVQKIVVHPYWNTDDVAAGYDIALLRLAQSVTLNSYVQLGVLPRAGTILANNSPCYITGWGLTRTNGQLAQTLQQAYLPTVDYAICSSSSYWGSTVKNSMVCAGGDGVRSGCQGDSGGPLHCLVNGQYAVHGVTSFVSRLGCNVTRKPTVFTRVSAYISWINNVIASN

`O=c1oc2cc(O)cc(O)c2cc1-c1ccc(Br)cc1` [Compound 1, 3-(4′-Bromophenyl)-5,7-dihydroxycoumarin] registered a melting point of 273 to 275 °C. In data set [1], the “Enzyme inhibition Collagenase” value was 42.6% and the IC50 was determined as 123 ± 2.2 µM. Also, the IC50 on mushroom tyrosinase [2] was 1050 ± 60 nM. The “Enzyme inhibition Tyrosinase” value in the data set with mushroom tyrosinase [3] stood at 98.3%. The “times more active than the standard inhibitor kojic acid (tyrosinase)” value in the data set with mushroom tyrosinase [3] (ratio of IC50 values) amounted to 17 times. In addition, in data set [4], the “Cytotoxicity on HaCaT cell viability” value is recorded as “non-cytotoxic; also recorded: no toxicity”. Besides, in data set [5], the inhibition at 50 µM is 15.6% and the IC50 was more than 50 µM.

With `O=c1oc2cc(O)c(O)cc2cc1-c1ccc(Br)cc1` [Compound 4, 3-(4′-Bromophenyl)-6,7-dihydroxycoumarin], in data set [1], the “Enzyme inhibition Collagenase” value was “N.I” and the IC50 is more than 150 µM. Also, in the data set on mushroom tyrosinase [3], the “Enzyme inhibition Tyrosinase” value was 58.3%. This compound also returned an IC50 against mushroom tyrosinase [3] (mean ± SD of three independent experiments) of 39.9 ± 0.7 µM. Also, the “times more active than the reference compound oleanolic acid (hyaluronidase)” value at hyaluronidase is given as 1.9 times. Further, in data set [5], the inhibition at 50 µM was determined as 30.5% and the IC50 was more than 50 µM.
